According to PMC11460631, “Inhibition of transient receptor potential vanilloid 3 channels by antimalarial hydroxychloroquine alleviates TRPV3-dependent dermatitis” (The Journal of Biological Chemistry, 2024):

Assays:
[1] = molecular target: T1, mTRPV4 (Mus musculus, UniProt Q9EPK8); experiment: Whole-cell current recordings, mTRPV4; assay type: cell-based, murine; details: 100 μM HCQ; current activated by 1 μM GSK1016790A
T1 construct: YFP or GFP; expressed in transfected cells; host or cells: HEK293T
T1 sequence (Q9EPK8 whole entry): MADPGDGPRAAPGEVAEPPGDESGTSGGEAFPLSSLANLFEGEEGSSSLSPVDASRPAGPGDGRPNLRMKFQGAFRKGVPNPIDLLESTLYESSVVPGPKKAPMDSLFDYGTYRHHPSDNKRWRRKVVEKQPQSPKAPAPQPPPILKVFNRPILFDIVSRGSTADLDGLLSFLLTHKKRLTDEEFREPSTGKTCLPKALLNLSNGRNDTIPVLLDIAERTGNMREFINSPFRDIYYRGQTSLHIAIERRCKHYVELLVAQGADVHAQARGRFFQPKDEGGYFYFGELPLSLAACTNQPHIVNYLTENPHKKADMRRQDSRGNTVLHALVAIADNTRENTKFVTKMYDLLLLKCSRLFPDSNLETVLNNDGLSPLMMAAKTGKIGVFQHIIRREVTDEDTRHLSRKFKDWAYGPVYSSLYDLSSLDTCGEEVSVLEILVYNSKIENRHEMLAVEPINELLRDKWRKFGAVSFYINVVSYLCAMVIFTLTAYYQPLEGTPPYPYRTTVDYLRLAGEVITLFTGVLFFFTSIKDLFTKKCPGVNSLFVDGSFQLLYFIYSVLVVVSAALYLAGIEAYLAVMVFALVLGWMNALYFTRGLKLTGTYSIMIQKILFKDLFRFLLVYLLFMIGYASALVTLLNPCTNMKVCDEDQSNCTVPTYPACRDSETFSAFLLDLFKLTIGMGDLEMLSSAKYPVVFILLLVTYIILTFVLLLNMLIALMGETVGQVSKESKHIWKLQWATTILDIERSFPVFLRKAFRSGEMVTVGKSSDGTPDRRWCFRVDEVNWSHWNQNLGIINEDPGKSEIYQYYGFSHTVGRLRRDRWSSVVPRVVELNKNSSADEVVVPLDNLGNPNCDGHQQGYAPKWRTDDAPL
Method: To elucidate the specificity of HCQ inhibition on TRPV3, we conducted whole-cell current recordings on other known pruritus-related TRP channels, such as hTRPA1, mTRPV1, mTRPV4, and mTRPM8 (Fig. 3, A and F). […] Because of the relatively larger inhibition of HCQ on mTRPM8 current, we tested the concentration dependence of HCQ on mTRPM8 channels.
HEK293T cells are cultured using Dulbecco's modified Eagle's medium containing 10% fetal bovine serum and 1% penicillin-streptomycin in a cell incubator with 5% CO2 at 37 °C. Plasmids of murine TRPV1, TRPV4, TRPM8, and human TRPV3, TRPA1 are labeled with YFP or GFP as indicators for subsequent electrophysiological recordings. Complementary DNA constructs of ion channels were transiently transfected with Lipofectamine 3000 (Invitrogen). And 12 to 18 h after transient transfection, electrophysiological recordings were performed.
Patch-clamp recordings were carried out with a HEKA EPC10 amplifier controlled by PatchMaster software (HEKA; https://www.heka.com/products/products_main.html#soft_pm) ([36]). Patch pipettes were prepared from borosilicate glass and fire-polished to the resistance of 3 to 8 MΩ by P-97 puller for whole-cell recordings. For single-channel recordings, patch pipettes were fire-polished to a higher resistance of 6 to 10 MΩ. […]

[2] = molecular target: T2, TRPV3 Y594 alanine mutation (Homo sapiens, UniProt Q8NET8, Y594A); experiment: Whole-cell recording of TRPV3 Y594 alanine mutant; assay type: cell-based; details: 1 mM 2-APB, ± 80 mV
T2 construct: YFP or GFP; expressed in transfected cells; host or cells: HEK293T
T2 sequence (Q8NET8 1-790 Y594A): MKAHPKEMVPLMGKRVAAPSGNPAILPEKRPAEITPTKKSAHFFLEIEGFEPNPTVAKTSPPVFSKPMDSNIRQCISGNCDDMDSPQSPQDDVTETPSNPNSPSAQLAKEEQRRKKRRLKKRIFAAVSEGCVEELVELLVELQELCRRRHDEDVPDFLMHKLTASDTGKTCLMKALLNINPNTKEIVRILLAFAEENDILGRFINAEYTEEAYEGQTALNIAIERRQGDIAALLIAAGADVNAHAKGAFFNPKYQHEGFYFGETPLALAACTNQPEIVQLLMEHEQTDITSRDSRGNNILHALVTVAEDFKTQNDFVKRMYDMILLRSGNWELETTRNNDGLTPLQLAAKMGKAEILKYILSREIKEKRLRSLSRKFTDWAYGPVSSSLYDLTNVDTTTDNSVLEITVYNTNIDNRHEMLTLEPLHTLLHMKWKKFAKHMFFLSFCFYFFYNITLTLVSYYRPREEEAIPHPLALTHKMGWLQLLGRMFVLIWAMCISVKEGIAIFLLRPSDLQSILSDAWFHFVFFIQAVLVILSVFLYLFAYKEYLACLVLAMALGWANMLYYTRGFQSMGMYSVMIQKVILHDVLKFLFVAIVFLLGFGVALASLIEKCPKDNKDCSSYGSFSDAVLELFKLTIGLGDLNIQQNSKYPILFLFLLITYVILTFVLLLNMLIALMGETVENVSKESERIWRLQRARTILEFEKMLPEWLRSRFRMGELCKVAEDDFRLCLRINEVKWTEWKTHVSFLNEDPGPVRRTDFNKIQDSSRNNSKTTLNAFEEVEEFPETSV
Excerpt: As we mentioned above, HCQ may act as a pore blocker of TRPV3. To probe the binding configuration of HCQ to TRPV3, we carried out molecular docking using Rosetta suite (https://rosettacommons.org) ([21]) and validated the docking models with point mutations in TRPV3 (Fig. 4A). […] Furthermore, when we introduced L670A to L591A mutant, we also observed a left shift on the concentration–response curve on this double mutant as compared to L591A mutant (Fig. 4H).
Figure 4 Residues of the pore domain are critical for HCQ inhibition on TRPV3.A, left panel, docking model of HCQ to the pore domain of TRPV3 structure (6uw4). Right panels, top view and side view of the HCQ-binding pocket. B-J, representative whole-cell recording of TRPV3 and mutants in response to 1 mM 2-APB, the mixture of 1 mM 2-APB and concentration gradients of HCQ with the holding potential of ± 80 mV. K, concentration–response curves of HCQ in WT TRPV3 and mutants (n = 3–5 cells). L, quantification of the inhibitory ratio of HCQ (100 μM) on WT, L591A, and N671Q. […]
All data from whole-cell recordings were analyzed in Igor Pro (WaveMetrics). IC50 values were determined by fitting the Hill equation to concentration-response relationships. […]

- reduction of mTRPV4 current [1]: 18.37% ± 11.21%
- IC50 [2]: 1570 ± 80 nM
SMILES: CCN(CCO)CCCC(C)Nc1ccnc2cc(Cl)ccc12 (centres unmarked) [HCQ, hydroxychloroquine]
